Measurements reported in ChEMBL document CHEMBL3885861, “Open TG-GATES”.

Species: Rattus norvegicus
Assay: Open TG-GATES - Regimen: Single
Assay type: toxicity, organism-based, Sprague-Dawley
Parameters: regimen Single, gender Male, age 6 weeks
Conditions: in vivo, po, 200 mg/kg, route gavage, dose level High; for APTT / Bas / Eos / Fbg / Hb / Ht / Lym / MCH / MCHC / MCV / Mono / Neu / PT / Plat / RBC / Ret / WBC: tissue Blood; for KIDNEY_L / KIDNEY_R / KIDNEY_TOTAL: tissue Kidney; for LIVER: tissue Liver; for A/G / ALP / ALT / AST / BUN / CRE / Ca / Cl / DBIL / GLC / IP / K / LDH / Na / PL / RALB / TBIL / TC / TG / TP / gamma-GTP: tissue Plasma

Structure (SMILES): CC(CN1c2ccccc2Sc2ccccc21)N(C)C (configuration not stated) [PROMETHAZINE]
- TERMINAL_BW (3 h): 219.2 g
- APTT (3 h): 23.5 s
- Bas (3 h): 0%
- Eos (3 h): 0.8%
- Fbg (3 h): 315.2 mg/dL
- Hb (3 h): 13.5 g/dL
- Ht (3 h): 40.9%
- Lym (3 h): 78.4%
- MCH (3 h): 21 pg
- MCHC (3 h): 32.9%
- MCV (3 h): 63.9 fL
- Mono (3 h): 3%
- Neu (3 h): 17%
- PT (3 h): 16.4 s
- Plat (3 h): 126.9 x10_4/uL
- RBC (3 h): 640.8 x10_4/ul
- Ret (3 h): 7.8%
- WBC (3 h): 66.9 x10_2/uL
- KIDNEY_L (3 h): 0.9 g
- KIDNEY_R (3 h): 1 g
- KIDNEY_TOTAL (3 h): 1.9 g
- LIVER (3 h): 9.7 g
- A/G (3 h): 1.3
- ALP (3 h): 1534.6 IU/L
- ALT (3 h): 59 IU/L
- AST (3 h): 90.2 IU/L
- BUN (3 h): 11.8 mg/dL
- CRE (3 h): 0.1 mg/dL
- Ca (3 h): 10.8 mg/dL
- Cl (3 h): 105.4 meq/L
- DBIL (3 h): 0.036 mg/dL
- GLC (3 h): 181 mg/dL
- IP (3 h): 10.1 mg/dL
- K (3 h): 4.3 meq/L
- LDH (3 h): 211.8 IU/L
- Na (3 h): 141.6 meq/L
- PL (3 h): 135.4 mg/dL
- RALB (3 h): 3.2 g/dL
- TBIL (3 h): 0.024 mg/dL
- TC (3 h): 77.2 mg/dL
- TG (3 h): 47.4 mg/dL
- TP (3 h): 5.6 g/dL
- gamma-GTP (3 h): 1.2 IU/L
- TERMINAL_BW (6 h): 215.1 g
- APTT (6 h): 24 s
- Bas (6 h): 0%
- Eos (6 h): 0.4%
- Fbg (6 h): 348.2 mg/dL
- Hb (6 h): 13.5 g/dL
- Ht (6 h): 40.8%
- Lym (6 h): 72.4%
- MCH (6 h): 20.7 pg
- MCHC (6 h): 33.1%
- MCV (6 h): 62.7 fL
- Mono (6 h): 2.6%
- Neu (6 h): 23.4%
- PT (6 h): 16.5 s
- Plat (6 h): 123.7 x10_4/uL
- RBC (6 h): 650.4 x10_4/ul
- Ret (6 h): 7.5%
- WBC (6 h): 56.6 x10_2/uL
- KIDNEY_L (6 h): 0.9 g
- KIDNEY_R (6 h): 0.9 g
- KIDNEY_TOTAL (6 h): 1.9 g
- LIVER (6 h): 9.1 g
- A/G (6 h): 1.2
- ALP (6 h): 1235.6 IU/L
- ALT (6 h): 44.8 IU/L
- AST (6 h): 77.8 IU/L
- BUN (6 h): 9.8 mg/dL
- CRE (6 h): 0.2 mg/dL
- Ca (6 h): 10.7 mg/dL
- Cl (6 h): 106.4 meq/L
- DBIL (6 h): 0.018 mg/dL
- GLC (6 h): 184.8 mg/dL
- IP (6 h): 9.4 mg/dL
- K (6 h): 4.4 meq/L
- LDH (6 h): 237.2 IU/L
- Na (6 h): 141 meq/L
- PL (6 h): 130.2 mg/dL
- RALB (6 h): 3.1 g/dL
- TBIL (6 h): 0.016 mg/dL
- TC (6 h): 76 mg/dL
- TG (6 h): 42 mg/dL
- TP (6 h): 5.7 g/dL
- gamma-GTP (6 h): 1.4 IU/L
- TERMINAL_BW (9 h): 208.1 g
- APTT (9 h): 24 s
- Bas (9 h): 0%
- Eos (9 h): 0.6%
- Fbg (9 h): 316.4 mg/dL
- Hb (9 h): 13.6 g/dL
- Ht (9 h): 41.5%
- Lym (9 h): 76%
- MCH (9 h): 20.4 pg
- MCHC (9 h): 32.9%
- MCV (9 h): 62.2 fL
- Mono (9 h): 2.2%
- Neu (9 h): 20.8%
- PT (9 h): 16.4 s
- Plat (9 h): 129.1 x10_4/uL
- RBC (9 h): 667.2 x10_4/ul
- Ret (9 h): 7.4%
- WBC (9 h): 67.2 x10_2/uL
- KIDNEY_L (9 h): 0.9 g
- KIDNEY_R (9 h): 0.9 g
- KIDNEY_TOTAL (9 h): 1.8 g
- LIVER (9 h): 8.4 g
- A/G (9 h): 1.2
- ALP (9 h): 1643.2 IU/L
- ALT (9 h): 39.6 IU/L
- AST (9 h): 69.2 IU/L
- BUN (9 h): 10 mg/dL
- CRE (9 h): 0.2 mg/dL
- Ca (9 h): 10.5 mg/dL
- Cl (9 h): 106.2 meq/L
- DBIL (9 h): 0.026 mg/dL
- GLC (9 h): 187 mg/dL
- IP (9 h): 9.1 mg/dL
- K (9 h): 4.2 meq/L
- LDH (9 h): 178.8 IU/L
- Na (9 h): 141 meq/L
- PL (9 h): 133.6 mg/dL
- RALB (9 h): 3.1 g/dL
- TBIL (9 h): 0.016 mg/dL
- TC (9 h): 75.6 mg/dL
- TG (9 h): 43 mg/dL
- TP (9 h): 5.6 g/dL
- gamma-GTP (9 h): 1 IU/L
- TERMINAL_BW (24 h): 209.6 g
- APTT (24 h): 22.3 s
- Bas (24 h): 0%
- Eos (24 h): 0.8%
- Fbg (24 h): 311.2 mg/dL
- Hb (24 h): 13.7 g/dL
- Ht (24 h): 41.5%
- Lym (24 h): 77.8%
- MCH (24 h): 20.1 pg
- MCHC (24 h): 33%
- MCV (24 h): 60.8 fL
- Mono (24 h): 2.4%
- Neu (24 h): 19%
- PT (24 h): 16.8 s
- Plat (24 h): 138.5 x10_4/uL
- RBC (24 h): 684.4 x10_4/ul
- Ret (24 h): 6.4%
- WBC (24 h): 71.5 x10_2/uL
- KIDNEY_L (24 h): 0.9 g
- KIDNEY_R (24 h): 0.9 g
- KIDNEY_TOTAL (24 h): 1.9 g
- LIVER (24 h): 8.6 g
- A/G (24 h): 1.3
- ALP (24 h): 1472.4 IU/L
- ALT (24 h): 40.8 IU/L
- AST (24 h): 68 IU/L
- BUN (24 h): 14.6 mg/dL
- CRE (24 h): 0.2 mg/dL
- Ca (24 h): 10.7 mg/dL
- Cl (24 h): 107.6 meq/L
- DBIL (24 h): 0.018 mg/dL
- GLC (24 h): 185.2 mg/dL
- IP (24 h): 8.3 mg/dL
- K (24 h): 4.2 meq/L
- LDH (24 h): 190 IU/L
- Na (24 h): 142.4 meq/L
- PL (24 h): 139 mg/dL
- RALB (24 h): 3.1 g/dL
- TBIL (24 h): 0.018 mg/dL
- TC (24 h): 79.4 mg/dL
- TG (24 h): 43.4 mg/dL
- TP (24 h): 5.6 g/dL
- gamma-GTP (24 h): 1 IU/L
